According to US20230194472A1, “MICRORNA ANALYSIS USING TUNNELING CURRENT” (Osaka University, priority 2019, published 2023):

Experiments:
[1] = system: 5-fluorouracil (5-FU) resistant strain of colon cancer cell strain DLD-1; assay: IC50 measurement on 5-fluorouracil resistant strain derived from DLD-1; assay type: cell-based; details: Homo sapiens; DLD-1 maintained 6 months or longer in the presence of 5-fluorouracil; confirmed resistant strain; read-out: IC50 with respect to 5-fluorouracil for the cultured cells
[2] = system: trifluridine (FTD) resistant strain of colon cancer cell strain DLD-1; assay: IC50 measurement on trifluridine resistant strain derived from DLD-1; assay type: cell-based; details: Homo sapiens; DLD-1 maintained 6 months or longer in the presence of trifluridine; confirmed resistant strain; read-out: IC50 with respect to trifluridine for the cultured cells
Protocol: Quantitative analysis of a microRNA was performed by tunneling current measurement. Colon cancer cell strain (DLD1) and 5-fluorouracil (5-FU) or trifluridine (FTD) resistant strains were used as samples.
Cancer cell strain DLD-1 obtained from a cell bank was maintained in a culture for 6 months or longer in the presence of trifluridine or 5-fluorouracil (Aldrich-Sigma) (about […]). The maintained culture was passaged about twice a week to maintain 60 to 80% confluence at 37° C. in a
DMEM medium supplemented with 10% serum on a plastic dish.

| IC50 [1] [µM] | IC50 [2] [µM] | Structure (SMILES) |
| --- | --- | --- |
| 300 |  | O=c1[nH]cc(F)c(=O)[nH]1 [5-fluorouracil] |
|  | 300 | O=c1[nH]c(=O)n([C@H]2C[C@H](O)[C@@H](CO)O2)cc1C(F)(F)F [trifluridine] |
